# Measurements reported in patent US20170348330A1, “ANTIVIRAL COMPOUND AND ANALOGUES THEREOF FOR TREATMENT OR PREVENTION OF FLAVIVIRUS DENGUE/ZIKA INFECTIONS” (Canopus BioPharma Incorporated, priority 2016, published 2017).
# Where “and” joins values, the source holds several entries; their conditions need not be identical. Equal entries are not always repeated. Where two headings read alike, the source gives them in different places.
# Experiments:
# [1] = Eplerenone PK and concentrations reported in humans; assay type: in vivo, human; conditions: for Cmax: human, plasma, po
# Text: Clinical data: Eplerenone PK and concentrations reported in humans:
# Referring now to FIG. 5 and FIG. 6, Eplerenone Cmax concentrations achieved in normal subjects is illustrated, as well as subjects with varying degrees of renal impairment after single and multiple doses of Eplerenone given orally.
# The charts illustrate the feasibility of achieving anti-viral Cmax concentrations using Eplerenone in human and show Eplerenone plasma concentration vs. time curves.
# In multiple dose studies, it is shown that Eplerenone steady state concentrations may be reached within 4 days. […] This preferred embodiment may be adjusted according to the specific conditions of the human subject.
# [2] = cited from earlier work
# [3] = laboratory animals; cited from earlier work
# Zika virus = assay: ZIKA anti-viral in-vitro testing in VERO cells (Naftol blue-black staining, absorbance at 450 nm); conditions: for Absorbance at 450 nm: Zika MOI 0.1, VERO cells, 72 hours, threshold 0.382, replicate wells
# Description: ZIKA Anti-Viral In-Vitro Testing and Antiviral Assay Report:
# Controls: Medium with DMSO at 1% start concentration; Zika virus for infection at 0.1 MOI; VERO cells on VP medium (serum-free).
# Procedure: Antivirals were diluted as information provided to stock concentrations of 10 mM in 100% DMSO.
# • 1—VERO cells in VP were inoculated in 200 μL/well at 5.0×10^4 cells/mL in 96-well plates. • 2—Incubated at 37° C. for 48 hours. • 3—With 80% confluence the test was performed as follows: culture medium was changed for 150 μL of fresh VP in columns 2 to 10. Antivirals diluted at 100 μM in VP medium were placed in the column 1 (300 μL). Serial dilutions from 1 to 10 were performed by passing 150 μL of medium (1:2). Plates were incubated at 37° C. for 2 hours. Zika virus diluted in VP medium to the final infection ration desired of MOI 0.1 in 100 μL of VP was added to wells. • 4—Plates were incubated for 72 hours and checked each 24 hours for cytotoxicity or cytopathic effect. • 5—Plates were washed and stained with Naftol blue-black. Absorbance was measured at 450 nm.
# DMSO cytotoxicity Antiviral cytotoxicity Primary Threshold for virus inhibition. Absorbance above 0.382
# [4] = cited from earlier work; for mean Cmax concentrations: healthy subjects
# dengue [5] = conditions: mouse model; cited from earlier work
# dengue [6] = conditions: cited from earlier work
# dengue [7] = conditions: by inhibiting the dengue 2′-O-methyltransferase NS5 domain; cited from earlier work
SMILES,Absorbance at 450 nm (Zika virus; 0.19 μM),Absorbance at 450 nm (Zika virus; 0.78 μM),Absorbance at 450 nm (Zika virus; 1.56 μM),Absorbance at 450 nm (Zika virus; 3.12 μM),Absorbance at 450 nm (Zika virus; 6.25 μM),Absorbance at 450 nm (Zika virus; 12.5 μM),Absorbance at 450 nm (Zika virus; 25 μM),Absorbance at 450 nm (Zika virus; 50 μM),further results
"COC(=O)[C@@H]1CC2=CC(=O)CC[C@]2(C)[C@@]23O[C@@H]2C[C@@]2(C)[C@@H](CC[C@@]24CCC(=O)O4)[C@H]13 [Eplerenone, pregn-4-ene-7,21-dicarboxylic acid, 9,11-epoxy-17-hydroxy-3-oxo, γ-lactone, methyl ester (7α, 11α, 17α)]",0.449 and 0.441 and 0.468 and 0.469,0.433 and 0.434 and 0.432 and 0.428,0.369 and 0.466 and 0.453 and 0.443,0.4 and 0.423 and 0.453 and 0.441,0.376 and 0.448 and 0.411 and 0.397,0.334 and 0.333 and 0.373 and 0.341,0.29 and 0.288 and 0.291 and 0.271,0.217 and 0.238 and 0.209 and 0.182,"Cmax relative to in-vitro concentration of column#9 ([…]) ([1]; Cmax […] after 100 mg oral vs in-vitro […]): 10 times; Cmax ([1]; 50 mg, healthy subjects, single dose of 50 mg orally, read-out: mean Cmax concentrations, equivalent): 2.8 µM; Cmax ([1]; 100 mg, healthy subjects, dose 100 mg orally, read-out: mean Cmax concentrations, equivalent): 4.1 µM; Cmax ([1]; 100 mg, therapeutic doses of oral Eplerenone (100 mg), read-out: Peak plasma concentrations (Cmax), equivalent): ≤ 4.1 µM; Pregnancy category ([2]; animal reproduction studies failed to demonstrate a risk to the fetus): category B; Tolerability ([2]; human): generally well tolerated; Dose with noticeable risk of foetal abnormalities [3]: over 1000 times the recommended daily dose; In-vitro concentrations showing anti-viral activity against Zika virus (Zika virus; columns 6-10 of the report, comparable to Butantan control): 0.19 to 3.12 µM; mean Cmax concentrations ([4]; dose 100 mg orally): 1720 ng/mL; mean Cmax concentrations ([4]; single dose of 50 mg orally): 1173 ng/mL; Accumulation: steady state Cmax compared with single dose administration ([4]; multiple dose studies): no significant accumulation; Time to reach steady state concentrations ([4]; multiple dose studies): ≤ 4 days; Peak plasma concentrations (Cmax) ([4]; therapeutic doses of oral Eplerenone (100 mg), human): up to 1720 ng/ml"
COCCOC(=O)C1=C(C)NC(C)=C(C(=O)OC(C)C)C1c1cccc([N+](=O)[O-])c1 (centres unmarked) [Nimodipine],0.206 and 0.321 and 0.378 and 0.354,0.142 and 0.293 and 0.459 and 0.396,0.202 and 0.387 and 0.46 and 0.397,0.235 and 0.468 and 0.451 and 0.415,0.263 and 0.363 and 0.451 and 0.395,0.276 and 0.282 and 0.347 and 0.305,0.21 and 0.224 and 0.271 and 0.217,0.091 and 0.113 and 0.117 and 0.092,
NC(=O)c1ncn([C@@H]2O[C@H](CO)[C@@H](O)[C@H]2O)n1 [Ribavirin],,,,,,,,,Protection against dengue (dengue [5]): did not show protection; Adverse effects in dengue animal models (dengue [6]; mouse model or rhesus monkey model (species not specified)): induced anemia and thrombocytosis; Protection against dengue (dengue [6]; rhesus monkey model): did not show protection; Activity against dengue in tissue culture (dengue [7]): works against dengue in tissue culture
CC(=O)S[C@@H]1CC2=CC(=O)CC[C@]2(C)[C@H]2CC[C@@]3(C)[C@@H](CC[C@@]34CCC(=O)O4)[C@H]12 [Spironolactone],0.22 and 0.2 and 0.183 and 0.095,0.328 and 0.23 and 0.168 and 0.063,0.328 and 0.318 and 0.2 and 0.069,0.359 and 0.317 and 0.223 and 0.06,0.358 and 0.307 and 0.263 and 0.097,0.338 and 0.342 and 0.234 and 0.092,0.255 and 0.257 and 0.214 and 0.076,0.079 and 0.082 and 0.074 and 0.047,
